Data from paper PMC4080982, “Interactions of antagonists with subtypes of inositol 1,4,5-trisphosphate (IP3) receptor” (British Journal of Pharmacology, 2014).

What was measured:
rat IP3R1 = target: T1, rat IP3R1 (Rattus norvegicus, UniProt P29994); assay: IP3-evoked Ca^2+ release from permeabilized DT40-IP3R1 cells; format: cell-based; conditions: IP3R1
T1 construct: different for NTs (NT2 > NT1 > > NT3) and full-length IP3Rs (IP3R3 > IP3R1 ≥ IP3R2); expressed in transfected cells
Protocol: (§1) We used DT40 cells lacking endogenous IP3Rs (Sugawara et al., [1997]), but stably expressing rat IP3R1 (GenBank accession number GQ233032.1; Pantazaka and Taylor, [2011]), mouse IP3R2 (GU980658.1; Tovey et al., [2010]) or rat IP3R3 (GQ233031.1; Rahman et al., [2009]). Cells were grown in suspension in RPMI 1640 medium supplemented with 10% FBS, 1% heat-inactivated chicken serum, 2 mM glutamine and 50 μM 2-mercaptoethanol at 37°C in humidified air containing 5% CO2. Cells were used or passaged when they reached a density of ∼1.5 × 10^6 cells mL^−1.
(§2) A low-affinity Ca^2+ indicator trapped within the ER of permeabilized DT40 cells was used to measure IP3-evoked Ca^2+ release (Tovey et al., [2006]; Saleem et al., [2012]). Briefly, the ER was loaded with indicator by incubating cells (∼5 × 10^7 mL^−1) in the dark with Mag-fluo-4AM (20 μM) in HEPES-buffered saline (HBS) containing 0.02% (v/v) Pluronic F127 for 1 h at 22°C. HBS had the following composition: 135 mM NaCl, 5.9 mM KCl, 11.6 mM HEPES, 1.5 mM CaCl2, 11.5 mM glucose, 1.2 mM MgCl2, pH 7.3. After permeabilization of the plasma membrane with saponin (10 μg·mL^−1, 4 min, 37°C) in Ca^2+-free cytosol-like medium (CLM), permeabilized cells were washed (650× g, 2 min) and resuspended (∼10^7 mL^−1) in Mg^2+-free CLM containing carbonyl cyanide 4-(trifluoromethoxy) phenylhydrazone (FCCP, 10 μM) to inhibit mitochondria, and supplemented with CaCl2 to give a final free [Ca^2+] of 220 nM after addition of 1.5 mM MgATP. Ca^2+-free CLM had the following composition: 2 mM NaCl, 140 mM KCl, 1 mM EGTA, 20 mM PIPES, 2 mM MgCl2, pH 7.0. Permeabilized cells were then distributed into 96-well plates (50 μL, 5 × 10^5 cells per well), centrifuged (300× g, 2 min) and used for experiments at 20°C. Addition of MgATP (1.5 mM) allowed Ca^2+ uptake by the ER, which was monitored at intervals of ∼1 s using a FlexStation-3 plate reader (MDS Analytical Devices, Berkshire, UK; Tovey et al., [2006]). After 2 min, when the ER had loaded to steady-state with Ca^2+, IP3 was added with CPA (10 μM) to inhibit further Ca^2+ uptake. IP3-evoked Ca^2+ release was expressed as a fraction of that released by ionomycin (1 μM; Tovey et al., [2006]). Similar methods were used to measure IP3-evoked Ca^2+ release from intact or permeabilized HEK cells (Tovey et al., [2008]). The timings of antagonist additions are described in the figure legends. The affinity of each competitive antagonist (pKD) was determined from the intercept on the abscissa of the Schild plot.
(§3) Concentration–effect relationships were fitted to Hill equations using Prism (version 5.0, GraphPad, San Diego, CA, USA), from which Hill coefficients (h), the fraction of the intracellular Ca^2+ stores released by a maximally effective concentrations of IP3, and pEC50 values were calculated.

mouse IP3R2 = target: T2, mouse IP3R2 (Mus musculus, UniProt Q9Z329); assay: IP3-evoked Ca^2+ release from permeabilized DT40-IP3R2 cells; format: cell-based; conditions: IP3R2
T2 construct: different for NTs (NT2 > NT1 > > NT3) and full-length IP3Rs (IP3R3 > IP3R1 ≥ IP3R2); expressed in transfected cells
T2 sequence (Q9Z329 whole entry): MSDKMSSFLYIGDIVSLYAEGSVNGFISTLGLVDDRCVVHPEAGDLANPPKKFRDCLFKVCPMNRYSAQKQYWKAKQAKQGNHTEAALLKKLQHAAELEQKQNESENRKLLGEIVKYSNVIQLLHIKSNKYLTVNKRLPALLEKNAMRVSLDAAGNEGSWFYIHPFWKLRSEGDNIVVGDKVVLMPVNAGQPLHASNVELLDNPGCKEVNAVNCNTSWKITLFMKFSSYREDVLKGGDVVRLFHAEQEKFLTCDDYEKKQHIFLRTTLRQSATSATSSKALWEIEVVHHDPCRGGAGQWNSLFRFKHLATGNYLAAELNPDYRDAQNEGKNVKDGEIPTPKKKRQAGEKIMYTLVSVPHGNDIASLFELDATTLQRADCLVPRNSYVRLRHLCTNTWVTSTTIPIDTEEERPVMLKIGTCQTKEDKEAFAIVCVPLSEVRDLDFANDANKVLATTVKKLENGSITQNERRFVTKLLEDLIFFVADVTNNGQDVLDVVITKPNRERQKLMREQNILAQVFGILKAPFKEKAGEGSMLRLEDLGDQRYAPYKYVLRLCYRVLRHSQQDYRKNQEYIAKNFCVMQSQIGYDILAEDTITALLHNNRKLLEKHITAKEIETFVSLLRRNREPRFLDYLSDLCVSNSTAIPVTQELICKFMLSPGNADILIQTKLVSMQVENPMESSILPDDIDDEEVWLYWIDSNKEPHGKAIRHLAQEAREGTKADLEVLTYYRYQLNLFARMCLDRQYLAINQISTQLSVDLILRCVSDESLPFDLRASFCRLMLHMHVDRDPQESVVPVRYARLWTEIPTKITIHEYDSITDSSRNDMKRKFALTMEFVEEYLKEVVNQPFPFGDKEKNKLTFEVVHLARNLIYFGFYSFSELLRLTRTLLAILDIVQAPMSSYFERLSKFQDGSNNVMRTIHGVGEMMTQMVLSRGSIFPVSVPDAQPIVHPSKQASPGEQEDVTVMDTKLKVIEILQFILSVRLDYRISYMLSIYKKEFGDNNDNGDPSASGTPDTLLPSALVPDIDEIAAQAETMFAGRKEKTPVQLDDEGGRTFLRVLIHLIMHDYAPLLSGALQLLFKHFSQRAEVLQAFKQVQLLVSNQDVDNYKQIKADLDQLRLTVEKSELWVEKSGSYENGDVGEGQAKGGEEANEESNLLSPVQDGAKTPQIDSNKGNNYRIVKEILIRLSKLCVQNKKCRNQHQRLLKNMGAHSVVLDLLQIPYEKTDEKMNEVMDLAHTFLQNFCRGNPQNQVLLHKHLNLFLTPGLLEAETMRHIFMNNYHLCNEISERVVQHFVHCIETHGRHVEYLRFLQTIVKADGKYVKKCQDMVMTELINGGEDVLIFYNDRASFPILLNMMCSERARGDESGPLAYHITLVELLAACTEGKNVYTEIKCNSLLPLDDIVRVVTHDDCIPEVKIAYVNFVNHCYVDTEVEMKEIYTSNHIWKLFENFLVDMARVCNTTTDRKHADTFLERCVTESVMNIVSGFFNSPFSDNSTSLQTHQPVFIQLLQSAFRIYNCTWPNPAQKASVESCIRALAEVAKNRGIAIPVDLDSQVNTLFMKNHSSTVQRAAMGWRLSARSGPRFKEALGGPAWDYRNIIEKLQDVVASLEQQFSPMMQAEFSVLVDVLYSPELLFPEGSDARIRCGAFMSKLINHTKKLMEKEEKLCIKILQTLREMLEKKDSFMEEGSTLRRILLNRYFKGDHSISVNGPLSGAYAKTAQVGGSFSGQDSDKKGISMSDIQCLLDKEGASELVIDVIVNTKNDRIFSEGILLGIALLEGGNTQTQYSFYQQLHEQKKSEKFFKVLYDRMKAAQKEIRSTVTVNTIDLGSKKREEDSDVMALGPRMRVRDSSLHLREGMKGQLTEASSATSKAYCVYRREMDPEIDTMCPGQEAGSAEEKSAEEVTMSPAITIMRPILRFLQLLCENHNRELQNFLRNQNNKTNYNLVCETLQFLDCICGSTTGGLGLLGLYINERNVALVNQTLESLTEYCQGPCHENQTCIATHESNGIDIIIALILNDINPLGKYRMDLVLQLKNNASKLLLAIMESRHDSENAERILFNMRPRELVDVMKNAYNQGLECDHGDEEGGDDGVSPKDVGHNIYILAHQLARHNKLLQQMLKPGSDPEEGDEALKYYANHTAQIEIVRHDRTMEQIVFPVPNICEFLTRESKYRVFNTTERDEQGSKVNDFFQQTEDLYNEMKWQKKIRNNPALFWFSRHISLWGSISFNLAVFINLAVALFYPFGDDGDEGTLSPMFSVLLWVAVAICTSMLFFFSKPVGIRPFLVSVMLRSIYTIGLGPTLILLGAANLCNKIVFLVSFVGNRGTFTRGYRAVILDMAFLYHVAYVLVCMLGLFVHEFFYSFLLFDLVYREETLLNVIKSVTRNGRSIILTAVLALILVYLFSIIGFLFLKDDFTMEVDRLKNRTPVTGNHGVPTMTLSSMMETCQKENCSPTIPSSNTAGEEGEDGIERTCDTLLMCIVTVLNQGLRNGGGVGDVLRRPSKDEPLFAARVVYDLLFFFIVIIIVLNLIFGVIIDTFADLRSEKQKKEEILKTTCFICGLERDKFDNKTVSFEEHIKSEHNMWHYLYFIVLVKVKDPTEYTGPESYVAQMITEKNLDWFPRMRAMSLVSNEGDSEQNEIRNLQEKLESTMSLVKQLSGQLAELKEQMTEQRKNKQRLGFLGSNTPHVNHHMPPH
Protocol: as §1, §2, §3

rat IP3R3 = target: T3, rat IP3R3 (Rattus norvegicus, UniProt Q63269); assay: IP3-evoked Ca^2+ release from permeabilized DT40-IP3R3 cells; format: cell-based; conditions: IP3R3
T3 construct: different for NTs (NT2 > NT1 > > NT3) and full-length IP3Rs (IP3R3 > IP3R1 ≥ IP3R2); expressed in transfected cells
Protocol: as §1, §2, §3

[1] = system: permeabilized DT40-IP3R1-3 cells; assay: Ca^2+ uptake and Ca^2+ content of the intracellular stores of permeabilized DT40 cells; format: cell-based; conditions: permeabilized DT40 cells, 5 min pre-incubation
Protocol: Briefly, the ER was loaded with indicator by incubating cells (∼5 × 10^7 mL^−1) in the dark with Mag-fluo-4AM (20 μM) in HEPES-buffered saline (HBS) containing 0.02% (v/v) Pluronic F127 for 1 h at 22°C. […] Ca^2+-free CLM had the following composition: 2 mM NaCl, 140 mM KCl, 1 mM EGTA, 20 mM PIPES, 2 mM MgCl2, pH 7.0. Permeabilized cells were then distributed into 96-well plates (50 μL, 5 × 10^5 cells per well), centrifuged (300× g, 2 min) and used for experiments at 20°C. […] After 2 min, when the ER had loaded to steady-state with Ca^2+, IP3 was added with CPA (10 μM) to inhibit further Ca^2+ uptake. […] The timings of antagonist additions are described in the figure legends. The affinity of each competitive antagonist (pKD) was determined from the intercept on the abscissa of the Schild plot.

HEK cells [2] = assay: IP3-evoked Ca^2+ release from permeabilized HEK cells; format: cell-based; conditions: 5 min
Protocol: as §2, with “Ca^2+-free CLM had the following composition: 2 mM NaCl, 140 mM KCl, 1 mM EGTA, 20 mM PIPES, 2 mM MgCl2, pH 7.0. Permeabilized cells were then distributed into 96-well plates (50 μL, 5 × 10^5 cells per well), centrifuged (300× g, 2 min) and used for experiments at 20°C.” left out, “After 2 min, when the ER had loaded to steady-state with Ca^2+, IP3 was added with CPA (10 μM) to inhibit further Ca^2+ uptake.” left out, “Similar methods were used to measure IP3-evoked Ca^2+ release from intact or permeabilized HEK cells (Tovey et al., [2008]). The timings of antagonist additions are described in the figure legends.” left out

HEK cells [3] = assay: Steady-state Ca^2+ content of the intracellular stores of permeabilized HEK cells; format: cell-based; conditions: 5 min
Protocol: as §2, with “Ca^2+-free CLM had the following composition: 2 mM NaCl, 140 mM KCl, 1 mM EGTA, 20 mM PIPES, 2 mM MgCl2, pH 7.0. Permeabilized cells were then distributed into 96-well plates (50 μL, 5 × 10^5 cells per well), centrifuged (300× g, 2 min) and used for experiments at 20°C.” left out, “After 2 min, when the ER had loaded to steady-state with Ca^2+, IP3 was added with CPA (10 μM) to inhibit further Ca^2+ uptake.” left out, “Similar methods were used to measure IP3-evoked Ca^2+ release from intact or permeabilized HEK cells (Tovey et al., [2008]). The timings of antagonist additions are described in the figure legends.” left out

HEK cells [4] = assay: Carbachol-evoked Ca^2+ signals in intact HEK cells; format: cell-based; conditions: intact HEK cells; Xestospongin 10 μM for 30 min
Protocol: as §2

HEK cells [5] = system: HEK cells; set-up: method as in Kurian et al., [2009]; conditions: Xestospongin C 10 μM for 30 min in Ca^2+-free medium, ref Kurian et al., [2009]; cited from earlier work
cerebellar microsomes = system: cerebellar microsomes; set-up: method as in Gafni et al., [1997]; conditions: ref Gafni et al., [1997], read-out: IC50, inhibition of IP3-evoked Ca^2+ release; cited from earlier work
[6] = 10 µM, 5 min, purified (Gafni et al., 1997)
[7] = 10 µM, 5 min, source Calbiochem
[8] = 20 µM, 7 min, purified (Gafni et al., 1997)
[9] = 20 µM, 12 min, purified (Gafni et al., 1997)
[10] = Xestospongin 20 μM, pooled 7 and 12 min
[11] = Xestospongin 20 μM, pooled from 7 and 12 min pre-incubation
[12] = 5 µM, 5 min, purified (Gafni et al., 1997)
[13] = Xestospongin C 5–20 μM from either source, 5–12 min before IP3

O[C@@]12CCCCCC[C@H]3CCN4CCC[C@H](CCCCCC[C@H]5CCN(CCC1)[C@@H]2O5)[C@H]4O3 [Xestospongin D]
ΔMax (rat IP3R1; [6]): 15 ± 4 % | ΔpEC50 (rat IP3R1; [6]): -0.02 ± 0.10 M⁻¹ | ΔMax (rat IP3R1; [7]): 17 ± 6 % | ΔpEC50 (rat IP3R1; [7]): 0.28 ± 0.13 M⁻¹ | ΔMax (rat IP3R1; [8]): 18 ± 5 % | ΔpEC50 (rat IP3R1; [8]): 0.37 ± 0.11 M⁻¹ | ΔMax (rat IP3R1; [9]): 18 ± 1 % | ΔpEC50 (rat IP3R1; [9]): 0.14 ± 0.12 M⁻¹ | ΔMax (rat IP3R1; [10]): 18 ± 2 % | ΔpEC50 (rat IP3R1; [11]): 0.26 ± 0.09 M | effect on IP3-evoked Ca^2+ release (rat IP3R1; Xestospongin D 10–20 μM from either source, 5–12 min): modest, but statistically significant | ΔMax (mouse IP3R2; [6]): 2 ± 3% | ΔpEC50 (mouse IP3R2; [6]): -0.07 ± 0.07 | ΔMax (mouse IP3R2; [7]): 2 ± 4% | ΔpEC50 (mouse IP3R2; [7]): 0.25 ± 0.22 | ΔMax (mouse IP3R2; [8]): 5 ± 2% | ΔpEC50 (mouse IP3R2; [8]): -0.06 ± 0.04 | ΔMax (mouse IP3R2; [9]): 11 ± 5% | ΔpEC50 (mouse IP3R2; [9]): -0.23 ± 0.06 | ΔMax (mouse IP3R2; [10]): 8 ± 3 % | ΔpEC50 (mouse IP3R2; [10]): −0.15 ± 0.05 | ΔpEC50 (mouse IP3R2; Xestospongin 20 μM, pooled 7 and 12 min, listed as XeD): -0.15 ± 0.05 | ΔMax (rat IP3R3; [6]): 8 ± 8% | ΔpEC50 (rat IP3R3; [6]): 0.16 ± 0.26 M⁻¹ | ΔMax (rat IP3R3; [7]): 12 ± 1 % | ΔpEC50 (rat IP3R3; [7]): 0.03 ± 0.04 M⁻¹ | ΔMax (rat IP3R3; [8]): 4 ± 2% | ΔpEC50 (rat IP3R3; [8]): 0.39 ± 0.10 M⁻¹ | ΔMax (rat IP3R3; [9]): -1 ± 0% | ΔpEC50 (rat IP3R3; [9]): 0.03 ± 0.08 M⁻¹ | ΔMax (rat IP3R3; [10]): 2 ± 2% | ΔpEC50 (rat IP3R3; [10]): 0.21 ± 0.10 M | effect on Ca^2+ content of the intracellular stores ([1]; 10 μM purified Xestospongin D): no effect | effect on Ca^2+ release evoked by IP3 (HEK cells [2]; Xestospongin D 10 μM): no effect | effect on Ca^2+ content of the intracellular stores (HEK cells [3]; Xestospongin D 10 μM): no effect | effect on Ca^2+ signals evoked by carbachol (HEK cells [4]): no significant effect

C1CCC[C@H]2CCCN3CC[C@@H](CCCCCC[C@@H]4CCCN5CC[C@@H](CC1)O[C@@H]45)O[C@@H]23 [Xestospongin C]
ΔMax (rat IP3R1; [12]): 2 ± 2% | ΔpEC50 (rat IP3R1; 5 µM, 5 min, purified as described (Gafni et al., 1997)): -0.12 ± 0.12 M⁻¹ | ΔMax (rat IP3R1; 5 µM, 5 min, source Calbiochem): 2 ± 1% | ΔpEC50 (rat IP3R1; 5 µM, 5 min, source Calbiochem): 0.09 ± 0.07 M⁻¹ | ΔMax (rat IP3R1; [8]): 9 ± 3 % | ΔpEC50 (rat IP3R1; [8]): 0.08 ± 0.07 M⁻¹ | ΔMax (rat IP3R1; [9]): 4 ± 3% | ΔpEC50 (rat IP3R1; [9]): 0.33 ± 0.18 M⁻¹ | ΔMax (rat IP3R1; [10]): 6 ± 2 % | ΔpEC50 (rat IP3R1; [11]): 0.21 ± 0.10 M | effect on IP3-evoked Ca^2+ release (rat IP3R1; [13]): no significant effect | ΔMax (mouse IP3R2; [12]): 0 ± 4% | ΔMax (mouse IP3R2; 5 µM, 5 min, source Calbiochem): 5 ± 6% | ΔMax (mouse IP3R2; [8]): 2 ± 2% | ΔMax (mouse IP3R2; [9]): 1 ± 2% | ΔMax (mouse IP3R2; [10]): 1 ± 1% | effect on IP3-evoked Ca^2+ release (mouse IP3R2; [13]): no significant effect | ΔMax (rat IP3R3; [12]): 3 ± 14% | ΔpEC50 (rat IP3R3; [12]): 0.02 ± 0.09 M⁻¹ | ΔMax (rat IP3R3; 5 µM, 5 min, source Calbiochem): 15 ± 7% | ΔpEC50 (rat IP3R3; 5 µM, 5 min, source Calbiochem): -0.04 ± 0.11 M⁻¹ | ΔMax (rat IP3R3; [8]): 1 ± 3% | ΔpEC50 (rat IP3R3; [8]): 0.15 ± 0.02 M⁻¹ | ΔMax (rat IP3R3; [9]): 2 ± 2% | ΔpEC50 (rat IP3R3; [9]): 0.10 ± 0.05 M⁻¹ | ΔMax (rat IP3R3; [10]): 1 ± 2% | ΔpEC50 (rat IP3R3; [10]): 0.12 ± 0.03 M | effect on IP3-evoked Ca^2+ release (rat IP3R3; [13]): no significant effect | effect on Ca^2+ content of the stores ([1]; 5 μM purified Xestospongin C): no significant effect | effect on Ca^2+ release evoked by IP3 (HEK cells [2]; Xestospongin C 5 μM): no effect | effect on Ca^2+ content of the intracellular stores (HEK cells [3]; Xestospongin C 5 μM): no effect | effect on Ca^2+ signals evoked by carbachol (HEK cells [4]): no significant effect | effect on carbachol-evoked Ca^2+ signals (HEK cells [5]): substantial, though incomplete, inhibition | IC50 (cerebellar microsomes): 358 nM
